Test results reported in patent US11576891B2, “Methods of treating or preventing estrogen-related diseases” (ENDORECHERCHE, INC., priority 2010, dated 2023).
“Also recorded” adds a separate entry of the source. Marks after values point to notes of the source that are not given here.

Legend:
[1] = test system: human endometrial Ishikawa carcinoma cells; settings: cited from earlier work
[2] = test system: rat; assay: biochemical parameters of bone metabolism in rats treated with DHEA and/or EM-800; type: in vivo; settings: for SERUM TALP (alkaline phosphatase) / URINE CALCIUM / URINE HP/Cr (hydroxyproline/creatinine ratio) / URINE PHOSPHORUS: DHEA 10 mg percutaneously, EM-800 75 μg orally, once daily; for decrease of urinary hydroxyproline/creatinine ratio, marker of bone resorption / increase of serum alkaline phosphatase activity, marker of bone formation: versus control
Text: Data are expressed as the means±SEM. **: P<0.01 experimental versus respective control.
It is particularly important to indicate that the combination of DHEA and EM-800 exerts unexpected beneficial effects on important biochemical parameters of bone metabolism. […] Moreover, no effect of DHEA alone could be detected on daily urinary calcium or phosphorus excretion (Luo, Sourla et al. 1997). EM-800, on the other hand, decreased the urinary hydroxyproline/creatinine ratio by 48% while, similarly to DHEA, no effect of EM-800 was seen on urinary calcium or phosphorus excretion. EM-800, moreover, had no effect on serum alkaline phosphatase activity, a marker of bone formation while DHEA increased the value of the parameter by about 75% (Luo, Sourla et al. 1997) (Table 2).
Thus, the addition of DHEA to EM-800 increases by 50% of the inhibitory effect of EM-800 on bone reabsorption.

[3] = test system: ovariectomized rats; assay: bone histomorphometry after 12-month treatment of ovariectomized rats; type: in vivo, rat; settings: 12 months
Protocol: (§1) FIG. 6 is a bar graph comparing the effect of 12-month treatment with dehydroepiandrosterone (DHEA) alone or in combination with Flutamide or EM-800 on trabecular bone volume in ovariectomized rats. Intact animals are added as additional controls. Data are presented as mean±SEM **p<0.01 versus OVX Control.
as §1, with “7” for “6”, “number of” for “bone volume in”
Note the reduced amount of trabecular bone (T) in ovariectomized control animals (B), and the significant increase in trabecular bone volume (T) induced after DHEA administration (C). […] Modified trichrome Masson-Goldner, magn.×80. T: Trabeculae, GP: Growth Plate.
Importantly, the combination of EM-800 and DHEA in ovariectomized rats treated for 12 months had beneficial effects on bone morphometry. Trabecular bone volume is particularly important for bone strength and to prevent bone fractures.

[4] = test system: postmenopausal women suffering from vaginal atrophy; settings: daily intravaginal, 3 months; cited from earlier work
[5] = test system: 60- to 70-year-old women; settings: cited from earlier work
[6] = solid state stability; type: physicochemical
[7] = test system: postmenopausal women; assay: serum lipids in postmenopausal women given oral EM-800; type: in vivo, human
[8] = test system: ovariectomized rat; settings: rat after ovariectomy; cited from earlier work

## COc1ccc(-c2sc3cc(O)ccc3c2Oc2ccc(OCCN3CCCCC3)cc2)cc1.Cl [Arzoxifene, 6-hydroxy-3-[4-[2-(1-piperidinyl)ethoxy]phenoxyl]-2-(4-methoxyphenyl)benzo[b]thiophene hydrochloride]
[1]
  effect on estrogen-sensitive parameter alkaline phosphatase: stimulate, to various degrees

## C[C@]12CC[C@H](O)CC1=CC[C@@H]1[C@@H]2CC[C@]2(C)C(=O)CC[C@@H]12 [DHEA, dehydroepiandrosterone]
[2]
  effect on daily urinary calcium or phosphorus excretion: no effect
  SERUM TALP (alkaline phosphatase): 198.38 ± 30.76* IU/L
  URINE CALCIUM: 25.87 ± 3.54 μmol/24 h/100 g
  URINE HP/Cr (hydroxyproline/creatinine ratio): 14.02 ± 1.59 μmol/mmol
  URINE PHOSPHORUS: 151.41 ± 14.57 μmol/24 h/100 g
  decrease of urinary hydroxyproline/creatinine ratio, marker of bone resorption: did not affect; also recorded: did not show any effect
  increase of serum alkaline phosphatase activity, marker of bone formation: about 75%
[3]
  increase in trabecular bone number compared to ovariectomized controls: 137%
  trabecular bone number: 1.27±0.1 per mm
  trabecular bone volume of the tibia: 11.9±0.6%
[4]
  circulating estradiol or testosterone: no change
  domains of sexual dysfunction (desire, arousal, orgasm and pleasure): significant improvement
  symptoms and signs of vaginal atrophy: rapid and very marked improvement
[5]; 12 months
  abdominal fat measurements: no significant change
  body weight: no change
  decrease in fasting plasma insulin levels: 17%
  decrease in plasma bone alkaline phosphatase: 22%
  decrease in subcutaneous skin fold thickness: 9.8%
  decrease in urinary hydroxyproline: 38%
  decrease of fasting plasma glucose: 12%
  decrease of femoral fat (midthigh, computed tomography): 3.8%
  increase in bone mass density at the hip: 2.3%
  increase in bone mass density at the hip Ward's triangle: 3.75%
  increase in bone mass density at the lumbar spine level: 2.2%
  increase in femoral muscular area (midthigh, computed tomography): 3.5%
  increase over control in plasma osteocalcin: 135%
  plasma triglycerides: not affected
[5]; after 12 months, all women
  endometrium histology: remained completely atrophic
[5]; after 12 months
  increase in index of sebum secretion: 79%
[5]; women with a maturation value of zero at onset of therapy
  women with stimulated vaginal epithelium maturation: 8 out of 10

## CC/C(=C(/c1ccc(OCCN(C)C)cc1)c1cccc(O)c1)c1ccccc1 [Droloxifene, (E)-3-[1-[4-[2-(Dimethylamino)ethoxy]phenyl]-2-phenyl-1-butenyl]phenol]
[1]
  effect on estrogen-sensitive parameter alkaline phosphatase: stimulate, to various degrees

## CC1=C(c2ccc(O)cc2)[C@H](c2ccc(OCCN3CCCCC3)cc2)Oc2cc(O)ccc21.Cl [EM-652.HCl, (S)-(+)-7-hydroxy-3-(4′-hydroxyphenyl)-4-methyl-2-(4″-(2′″-piperidinoethoxy)phenyl)-2H-1 benzopyran hydrochloride]
[6]
  solid state stability: good solid state stability

## CC1=C(c2ccc(OC(=O)C(C)(C)C)cc2)[C@H](c2ccc(OCCN3CCCCC3)cc2)Oc2cc(OC(=O)C(C)(C)C)ccc21 [EM-800, (S)-(+)-4-[7-(2,2-dimethyl-1-oxopropoxy)-4-methyl-2-[4-[2-(1-piperidinyl)-ethoxy]phenyl]-2H-1-benzopyran-3-yl]-phenyl 2,2-dimethylpropanoate]
[7]; daily oral dose of 5, 10, 20 and 40 mg for 2 weeks
  decrease in total serum cholesterol: 10%
[7]; daily oral dose of 5, 10, 20 and 40 mg, at 1 week
  decrease in serum triglyceride levels: 15%
[2]
  effect on daily urinary calcium or phosphorus excretion: no effect
  SERUM TALP (alkaline phosphatase): 114.11 ± 11.26 IU/L
  URINE CALCIUM: 17.44 ± 4.5 μmol/24 h/100 g
  URINE HP/Cr (hydroxyproline/creatinine ratio): 6.81 ± 0.84** μmol/mmol
  URINE PHOSPHORUS: 102.03 ± 25.13 μmol/24 h/100 g
  decrease of urinary hydroxyproline/creatinine ratio, marker of bone resorption: 48%
  increase of serum alkaline phosphatase activity, marker of bone formation: no effect
[1]
  antiestrogenic activity in Ishikawa cells: pure antiestrogenic activity
[8]
  dose at which maximal effect on bone resorption is achieved: 0.01 mg/kg

## CC/C(=C(\c1ccc(I)cc1)c1ccc(OCCN2CCCC2)cc1)c1ccccc1 [Idoxifene, (E)-1-[2-[4-[1-(4-Iodophenyl)-2-phenyl-1-butenyl]phenoxy]ethyl]pyrrolidine]
[1]
  effect on estrogen-sensitive parameter alkaline phosphatase: stimulate, to various degrees

## OCCOc1ccc(/C(=C(/CCCl)c2ccccc2)c2ccccc2)cc1 [Ospemifene, (Z)-2-[4-(4-chloro-1,2-diphenyl-1-butenyl)phenoxyl]ethanol]
[1]
  effect on estrogen-sensitive parameter alkaline phosphatase: stimulate, to various degrees

## Cl.O=C(c1ccc(OCCN2CCCCC2)cc1)c1c(-c2ccc(O)cc2)sc2cc(O)ccc12 [Raloxifene, [2-(4-hydroxyphenyl)-6-hydroxybenzo[b]thien-3-yl][4-[2-(1-piperidinyl)ethoxy]phenyl]-methanone hydrochloride]
[1]
  effect on estrogen-sensitive parameter alkaline phosphatase: stimulate, to various degrees
[8]
  dose at which maximal effect on bone resorption is achieved: 0.1 mg/kg

## CC/C(=C(\c1ccccc1)c1ccc(OCCN(C)C)cc1)c1ccccc1 [Tamoxifen, (Z)-2-[4-(1,2-diphenyl-1-butenyl)phenoxy]-N,N-dimethylethanamine]
[1]
  effect on estrogen-sensitive parameter alkaline phosphatase: stimulate, to various degrees

## CN(C)CCOc1ccc(/C(=C(/CCCl)c2ccccc2)c2ccccc2)cc1 [Toremifene, (Z)-2-[4-(4-Chloro-1,2-diphenyl-1-butenyl)phenoxy]-N,N-dimethylethanamine]
[1]
  effect on estrogen-sensitive parameter alkaline phosphatase: stimulate, to various degrees
